Active and inactive are the calls of the source. The rule behind the calls is not given here.

The values that follow come from PubChem BioAssay AID1259407 (Chemical Carcinogenesis Research Information System (CCRIS), 2018).

In this data set the test system is CCRIS mutagenicity, Ames/micronucleus/aberration tests. Kind of data set: CCRIS mutagenicity studies.
[1] abbreviates: Test System: AMES SALMONELLA TYPHIMURIUM, Strain/Indicator: TA98, Metabolic Activation: NONE, Method: PREINCUBATION
Where [2] appears, read: Test System: AMES SALMONELLA TYPHIMURIUM, Strain/Indicator: TA100, Metabolic Activation: NONE, Method: STANDARD PLATE.
The mark [3] stands for this setting: Test System: AMES SALMONELLA TYPHIMURIUM, Strain/Indicator: TA98, Metabolic Activation: HAMSTER, LIVER, S-9, AROCLOR 1254 (10%), Method: PREINCUBATION
The mark [4] stands for this setting: Test System: AMES SALMONELLA TYPHIMURIUM, Strain/Indicator: TA98, Metabolic Activation: RAT, LIVER, S-9, AROCLOR 1254 (10%), Method: PREINCUBATION
The mark [5] stands for this setting: Test System: AMES SALMONELLA TYPHIMURIUM, Strain/Indicator: TA100, Metabolic Activation: HAMSTER, LIVER, S-9, AROCLOR 1254 (10%), Method: PREINCUBATION
Setting [6] is: Test System: AMES SALMONELLA TYPHIMURIUM, Strain/Indicator: TA100, Metabolic Activation: NONE, Method: PREINCUBATION
Where [7] appears, read: Test System: AMES SALMONELLA TYPHIMURIUM, Strain/Indicator: TA100, Metabolic Activation: RAT, LIVER, S-9, AROCLOR 1254 (10%), Method: PREINCUBATION
The mark [8] stands for this setting: Test System: AMES SALMONELLA TYPHIMURIUM, Strain/Indicator: TA1535, Metabolic Activation: NONE, Method: PREINCUBATION
[9] abbreviates: Test System: AMES SALMONELLA TYPHIMURIUM, Strain/Indicator: TA1537, Metabolic Activation: HAMSTER, LIVER, S-9, AROCLOR 1254 (10%), Method: PREINCUBATION
Where [10] appears, read: Test System: AMES SALMONELLA TYPHIMURIUM, Strain/Indicator: TA1537, Metabolic Activation: NONE, Method: PREINCUBATION
Where [11] appears, read: Test System: AMES SALMONELLA TYPHIMURIUM, Strain/Indicator: TA1537, Metabolic Activation: RAT, LIVER, S-9, AROCLOR 1254 (10%), Method: PREINCUBATION

As for `Cn1c(N=[N+]=[N-])nc2ncc(-c3ccccc3)cc21`, the mutagenic call is, setting by setting: (Test System: AMES SALMONELLA TYPHIMURIUM, Strain/Indicator: TA98(1,8-DNP6), Metabolic Activation: NONE, Method: PREINCUBATION) “active; positive”; (Test System: AMES SALMONELLA TYPHIMURIUM, Strain/Indicator: TA98(NR), Metabolic Activation: NONE, Method: PREINCUBATION) “active; positive”; under setting [1], “active; positive”; (Test System: AMES SALMONELLA TYPHIMURIUM, Strain/Indicator: YG1024, Metabolic Activation: NONE, Method: PREINCUBATION) “active; positive”.

Regarding `O=C(O)c1cc(I)cc2cccnc12`, the mutagenic call reads like this: (Test System: AMES SALMONELLA TYPHIMURIUM, Strain/Indicator: TA98, Metabolic Activation: NONE, Method: STANDARD PLATE) “inactive; negative”; (Test System: AMES SALMONELLA TYPHIMURIUM, Strain/Indicator: TA98, Metabolic Activation: RAT, LIVER, S-9, AROCLOR 1254, Method: STANDARD PLATE) “inactive; negative”; under setting [2], “inactive; negative”; (Test System: AMES SALMONELLA TYPHIMURIUM, Strain/Indicator: TA100, Metabolic Activation: RAT, LIVER, S-9, AROCLOR 1254, Method: STANDARD PLATE) “inactive; negative”; (Test System: AMES SALMONELLA TYPHIMURIUM, Strain/Indicator: TA1535, Metabolic Activation: NONE, Method: STANDARD PLATE) “inactive; negative”; (Test System: AMES SALMONELLA TYPHIMURIUM, Strain/Indicator: TA1535, Metabolic Activation: RAT, LIVER, S-9, AROCLOR 1254, Method: STANDARD PLATE) “inactive; negative”. Also, the mutagenic call is, setting by setting: (Test System: AMES SALMONELLA TYPHIMURIUM, Strain/Indicator: TA1537, Metabolic Activation: NONE, Method: STANDARD PLATE) “inactive; negative”; (Test System: AMES SALMONELLA TYPHIMURIUM, Strain/Indicator: TA1537, Metabolic Activation: RAT, LIVER, S-9, AROCLOR 1254, Method: STANDARD PLATE) “inactive; negative”.

`CCCCCN(CCCCC)CCCCC`: the mutagenic call is, setting by setting: under setting [3], “inactive; negative”; under setting [1], “inactive; negative”; under setting [4], “inactive; negative”; under setting [5], “inactive; negative”; under setting [6], “inactive; negative”; under setting [7], “inactive; negative”. The mutagenic call was “inactive; negative” (Test System: AMES SALMONELLA TYPHIMURIUM, Strain/Indicator: TA1535, Metabolic Activation: HAMSTER, LIVER, S-9, AROCLOR 1254 (10%), Method: PREINCUBATION); “inactive; negative” under setting [8]; “inactive; negative” (Test System: AMES SALMONELLA TYPHIMURIUM, Strain/Indicator: TA1535, Metabolic Activation: RAT, LIVER, S-9, AROCLOR 1254 (10%), Method: PREINCUBATION); “inactive; negative” under setting [9]; “inactive; negative” under setting [10]; “inactive; negative” under setting [11].

Take `Cc1cccc(C)c1N`: the mutagenic call by setting is: (End Point: IN VITRO CHROMOSOMAL ABERRATIONS, Test System: CHINESE HAMSTER OVARY CELLS, Metabolic Activation: NONE) “active; positive; precipitation occurred at all doses”; (End Point: IN VITRO CHROMOSOMAL ABERRATIONS, Test System: CHINESE HAMSTER OVARY CELLS, Metabolic Activation: RAT, LIVER, S-9, AROCLOR 1254) “active; positive; precipitation occurred at 1200 and 1300 ug/ml”; (Test System: AMES SALMONELLA TYPHIMURIUM, Strain/Indicator: TA97, Metabolic Activation: HAMSTER, LIVER, S-9, AROCLOR 1254 (30%), Method: PREINCUBATION) “inactive; negative”; (Test System: AMES SALMONELLA TYPHIMURIUM, Strain/Indicator: TA97, Metabolic Activation: NONE, Method: PREINCUBATION) “inactive; negative”; (Test System: AMES SALMONELLA TYPHIMURIUM, Strain/Indicator: TA97, Metabolic Activation: RAT, LIVER, S-9, AROCLOR 1254 (30%), Method: PREINCUBATION) “inactive; negative”; under setting [3], “inactive; negative”. In addition, the mutagenic call runs as follows: (Test System: AMES SALMONELLA TYPHIMURIUM, Strain/Indicator: TA98, Metabolic Activation: HAMSTER, LIVER, S-9, AROCLOR 1254 (30%), Method: PREINCUBATION) “inactive; negative”; (Test System: AMES SALMONELLA TYPHIMURIUM, Strain/Indicator: TA98, Metabolic Activation: HAMSTER, LIVER, S-9, AROCLOR 1254, Method: PREINCUBATION) “inactive; negative”; under setting [1], “inactive; negative”; under setting [4], “inactive; negative”; (Test System: AMES SALMONELLA TYPHIMURIUM, Strain/Indicator: TA98, Metabolic Activation: RAT, LIVER, S-9, AROCLOR 1254 (30%), Method: PREINCUBATION) “inactive; negative”; (Test System: AMES SALMONELLA TYPHIMURIUM, Strain/Indicator: TA98, Metabolic Activation: RAT, LIVER, S-9, AROCLOR 1254, Method: PREINCUBATION) “inactive; negative”. Moreover, the mutagenic call (Test System: AMES SALMONELLA TYPHIMURIUM, Strain/Indicator: TA100, Metabolic Activation: HAMSTER, LIVER, S-9, AROCLOR 1254 (5%), Method: PREINCUBATION) is “inactive; negative”; the mutagenic call under setting [5] was “inactive; negative”; the mutagenic call (Test System: AMES SALMONELLA TYPHIMURIUM, Strain/Indicator: TA100, Metabolic Activation: HAMSTER, LIVER, S-9, AROCLOR 1254, Method: PREINCUBATION) was “inactive; negative”; the mutagenic call under setting [6] is “inactive; negative”; the mutagenic call (Test System: AMES SALMONELLA TYPHIMURIUM, Strain/Indicator: TA100, Metabolic Activation: RAT, LIVER, S-9, AROCLOR 1254 (5 OR 30%), Method: PREINCUBATION) is “inactive; negative”; the mutagenic call under setting [7] is “inactive; negative”. Also, the mutagenic call is, setting by setting: (Test System: AMES SALMONELLA TYPHIMURIUM, Strain/Indicator: TA100, Metabolic Activation: RAT, LIVER, S-9, AROCLOR 1254, Method: PREINCUBATION) “inactive; negative”; (Test System: AMES SALMONELLA TYPHIMURIUM, Strain/Indicator: TA1535, Metabolic Activation: HAMSTER, LIVER, S-9, AROCLOR 1254 (5%), Method: PREINCUBATION) “inactive; negative”; (Test System: AMES SALMONELLA TYPHIMURIUM, Strain/Indicator: TA1535, Metabolic Activation: HAMSTER, LIVER, S-9, AROCLOR 1254, Method: PREINCUBATION) “inactive; negative”; under setting [8], “inactive; negative”; (Test System: AMES SALMONELLA TYPHIMURIUM, Strain/Indicator: TA1535, Metabolic Activation: RAT, LIVER, S-9, AROCLOR 1254 (5%), Method: PREINCUBATION) “inactive; negative”; (Test System: AMES SALMONELLA TYPHIMURIUM, Strain/Indicator: TA1535, Metabolic Activation: RAT, LIVER, S-9, AROCLOR 1254 (10 OR 30%), Method: PREINCUBATION) “inactive; negative”. Besides, the mutagenic call runs as follows: (Test System: AMES SALMONELLA TYPHIMURIUM, Strain/Indicator: TA1535, Metabolic Activation: RAT, LIVER, S-9, AROCLOR 1254, Method: PREINCUBATION) “inactive; negative”; under setting [9], “inactive; negative”; (Test System: AMES SALMONELLA TYPHIMURIUM, Strain/Indicator: TA1537, Metabolic Activation: HAMSTER, LIVER, S-9, AROCLOR 1254, Method: PREINCUBATION) “inactive; negative”; under setting [10], “inactive; negative”; under setting [11], “inactive; negative”; (Test System: AMES SALMONELLA TYPHIMURIUM, Strain/Indicator: TA1537, Metabolic Activation: RAT, LIVER, S-9, AROCLOR 1254, Method: PREINCUBATION) “inactive; negative”.

As to `N#Cc1cccc2c([N+](=O)[O-])cccc12`, the mutagenic call reads like this: under setting [2], “active; positive”; (Test System: AMES SALMONELLA TYPHIMURIUM, Strain/Indicator: TA100, Metabolic Activation: S-9 MIX, Method: STANDARD PLATE) “active; positive”.
